Like-named read-outs stand apart in the source and are kept apart here.
Key:
[1] = Measurement of LogP values by HPLC on reversed phase columns (EEC directive 79/831 Annex V.A8); assay type: physicochemical; conditions: method [a]: LC-UV, acidic range, 0.1% formic acid in water and acetonitrile as eluent; Table 1
Method: Measurement of Log P values was performed as outlined above.

Botrytis cinerea = test: In vivo preventive test on Botrytis cinerea (grey mould) on gherkin, Examples B, Q1 and R2; conditions: Botrytis cinerea; for pest or weed control at 100 ppm: Example R2, rate of application 100 ppm
Puccinia recondita = test: In vivo preventive test on Puccinia recondita (brown rust on wheat), Examples C and R3; conditions: Puccinia recondita, 264 h, preventive spray, evaluated 11 days after inoculation
Pyrenophora teres = test: In vivo preventive test on Pyrenophora teres (net blotch on barley), Examples D, Q2 and R4; conditions: Pyrenophora teres, 336 h; for pest or weed control at 100 ppm: Example R4, rate of application 100 ppm
Septoria tritici = test: In vivo preventive test on Septoria tritici (leaf spot on wheat), Examples E, Q3 and R5; conditions: Zymoseptoria tritici, 576 h, preventive spray, evaluated 24 days after inoculation
Sphaerotheca fuliginea = test: In vivo preventive test on Sphaerotheca fuliginea (powdery mildew on cucurbits), Examples F and R6; conditions: Podosphaera fuliginea, 360 h, preventive spray, evaluated 15 days after inoculation
Uromyces appendiculatus = test: In vivo preventive test on Uromyces appendiculatus (bean rust), Examples G and R7; conditions: 264 h, preventive spray, evaluated 11 days after inoculation
Alternaria solani = test: In vivo preventive Alternaria test (tomatoes), Example H; conditions: 72 h, 100 ppm of active ingredient, preventive spray, evaluated 3 days after inoculation, read-out: efficacy
Phakopsora pachyrhizi = test: In vivo preventive Phakopsora test (soybeans), Example I; conditions: 168 h, 100 ppm of active ingredient, preventive spray, evaluated 7 days after inoculation, read-out: efficacy
[2] = system: Blumeria graminis fsp. hordei; test: In vivo preventive Blumeria test (barley), Example K; conditions: 168 h, 500 ppm of active ingredient, preventive spray, evaluated 7 days after inoculation, read-out: efficacy
Description: After the spray coating has been dried, the plants are dusted with spores of Blumeria graminis fsp. hordei.

Fusarium culmorum = test: In vivo preventive Fusarium culmorum test (wheat), Example L; conditions: 120 h, 500 ppm of active ingredient, preventive spray, evaluated 5 days after inoculation, read-out: efficacy
Method: After the spray coating has been dried, the plants are slightly injured by using a sandblast and afterwards they are sprayed with a conidia suspension of Fusarium culmorum.
The test is evaluated 5 days after the inoculation.

Fusarium graminearum = test: whole plant or invertebrate; assay type: in vivo; conditions: in Hordeum vulgare, 120 h, read-out: efficacy
Leptosphaeria nodorum = test: In vivo preventive Leptosphaeria nodorum test (wheat), Example N; conditions: Parastagonospora nodorum, 192 h, 500 ppm of active ingredient, preventive spray, evaluated 8 days after inoculation, read-out: efficacy
Description: After the spray coating has been dried, the plants are sprayed with a spore suspension of Leptosphaeria nodorum.

[3] = system: Fusarium nivale (var. majus); test: In vivo preventive Fusarium nivale (var. majus) test (wheat), Example O; conditions: Microdochium nivale, 120 h, 500 ppm of active ingredient, preventive spray, evaluated 5 days after inoculation, read-out: efficacy
Description: After the spray coating has been dried, the plants are slightly injured by using a sandblast and afterwards they are sprayed with a conidia suspension of Fusarium nivale (var. majus).

Pyricularia oryzae = test: whole plant or invertebrate; assay type: in vivo; conditions: 192 h, read-out: efficacy
Venturia inaequalis = test: In vivo preventive Venturia test (apples), Example J; conditions: 240 h, read-out: efficacy
Method: After the spray coating has dried on, the plants are inoculated with an aqueous conidia suspension of the causal agent of apple scab (Venturia inaequalis) and then remain for 1 day in an incubation cabinet at approximately 20° C. and a relative atmospheric humidity of 100%.
The plants are then placed in a greenhouse at approximately 21° C. and a relative atmospheric humidity of approximately 90%.
The test is evaluated 10 days after the inoculation.

Alternaria brassicae = test: In vivo preventive test on Alternaria brassicae (leaf spot on radish), Examples A and R1; conditions: Alternaria brassicae, 144 h
[4] = 500 ppm of active ingredient, preventive spray, evaluated 4 to 5 days after inoculation, read-out: efficacy
[5] = 500 ppm of active ingredient, wheat, read-out: efficacy
[6] = 500 ppm of active ingredient, preventive spray, evaluated 14 days after inoculation, read-out: efficacy
[7] = 500 ppm of active ingredient, gherkin, read-out: efficacy
[8] = 500 ppm of active ingredient, bean, read-out: efficacy
[9] = Example R2, rate of application 500 ppm, read-out: Efficacy in %
[10] = Example R3, wheat, read-out: Efficacy in %
[11] = Example R3, wheat, 500 ppm, read-out: Efficacy in %
[12] = Example R4, rate of application 500 ppm, read-out: Efficacy in %
[13] = Example R5, wheat, read-out: Efficacy in %
[14] = Example R5, wheat, 500 ppm, read-out: Efficacy in %
[15] = Example R7, bean, read-out: Efficacy in %
[16] = Example R7, bean, 500 ppm, read-out: Efficacy in %
[17] = 500 ppm of active ingredient, preventive spray, evaluated 6 days after inoculation, read-out: efficacy

| Compound | chromatographic logP [1] | pest or weed control at 500 ppm (Botrytis cinerea; [4]) [%] | pest or weed control at 500 ppm (Puccinia recondita; [5]) [%] | pest or weed control at 500 ppm (Pyrenophora teres; [6]) [%] | pest or weed control at 500 ppm (Septoria tritici; [5]) [%] | pest or weed control at 500 ppm (Sphaerotheca fuliginea; [7]) [%] | pest or weed control at 500 ppm (Uromyces appendiculatus; [8]) [%] | pest or weed control at 100 ppm (Alternaria solani) [%] | pest or weed control at 100 ppm (Phakopsora pachyrhizi) [%] | pest or weed control at 500 ppm [2] [%] | pest or weed control at 500 ppm (Fusarium culmorum) [%] | pest or weed control at 500 ppm (Fusarium graminearum) [%] | pest or weed control at 500 ppm (Leptosphaeria nodorum) [%] | pest or weed control at 500 ppm [3] [%] | pest or weed control at 500 ppm (Pyricularia oryzae) [%] | pest or weed control at 100 ppm (Venturia inaequalis) [%] | pest or weed control at 500 ppm (Alternaria brassicae; [17]) [%] | further results |
| --- | --- | --- | --- | --- | --- | --- | --- | --- | --- | --- | --- | --- | --- | --- | --- | --- | --- | --- |
| N#Cc1cncn1CC(O)(Cc1ccccc1)C1(Cl)CC1 (centres unmarked) [Example I-65] | 2.64 | 90 to 100 | 90 to 100 | 90 to 100 | 80 to 89 | 90 to 100 | 90 to 100 | 90 to 100 | 90 to 100 | 90 to 100 | 90 to 100 | 90 to 100 | 80 to 89 | 90 to 100 | 90 to 100 | 80 to 89 |  |  |
| N#Cc1cncn1CC(O)(Cc1ccccc1Cl)C1(Cl)CC1 (centres unmarked) [Example I-06, 1-[2-(1-chlorocyclopropyl)-3-(2-chlorophenyl)-2-hydroxypropyl]-1H-imidazole-5-carbonitrile] | 2.92 | 90 to 100 | 90 to 100 | 90 to 100 | 90 to 100 | 90 to 100 | 90 to 100 | 90 to 100 | 90 to 100 | 90 to 100 | 90 to 100 | 90 to 100 | 90 to 100 | 90 to 100 | 90 to 100 | 80 to 89 |  | pest or weed control at 100 ppm (Botrytis cinerea; read-out: Efficacy in %): 80%; pest or weed control at 500 ppm (Botrytis cinerea; [9]): 97%; pest or weed control at 100 ppm (Puccinia recondita; [10]): 89%; pest or weed control at 500 ppm (Puccinia recondita; [11]): 94%; pest or weed control at 100 ppm (Pyrenophora teres; read-out: Efficacy in %): 86%; pest or weed control at 500 ppm (Pyrenophora teres; [12]): 93%; pest or weed control at 100 ppm (Septoria tritici; [13]): 98%; pest or weed control at 500 ppm (Septoria tritici; [14]): 100%; pest or weed control at 100 ppm (Uromyces appendiculatus; [15]): 100%; pest or weed control at 500 ppm (Uromyces appendiculatus; [16]): 100% |
| N#Cc1cncn1CC(O)(Cc1ccccc1F)C1(Cl)CC1 (centres unmarked) [Example I-34, 1-[2-(1-chlorocyclopropyl)-3-(2-fluorophenyl)-2-hydroxypropyl]-1H-imidazole-5-carbonitrile] | 2.64 | 90 to 100 | 90 to 100 | 90 to 100 | 90 to 100 | 90 to 100 | 90 to 100 | 90 to 100 | 90 to 100 | 90 to 100 | 90 to 100 | 90 to 100 | 90 to 100 | 90 to 100 |  | 90 to 100 | 90 to 100 | pest or weed control at 100 ppm (Alternaria brassicae; Example R1, rate of application 100 ppm, read-out: Efficacy in %): 58%; pest or weed control at 500 ppm (Alternaria brassicae; Example R1, rate of application 500 ppm, read-out: Efficacy in %): 92%; pest or weed control at 100 ppm (Botrytis cinerea; read-out: Efficacy in %): 94%; pest or weed control at 500 ppm (Botrytis cinerea; [9]): 100%; pest or weed control at 100 ppm (Puccinia recondita; [10]): 94%; pest or weed control at 500 ppm (Puccinia recondita; [11]): 100%; pest or weed control at 100 ppm (Pyrenophora teres; read-out: Efficacy in %): 83%; pest or weed control at 500 ppm (Pyrenophora teres; [12]): 98%; pest or weed control at 100 ppm (Septoria tritici; [13]): 100%; pest or weed control at 500 ppm (Septoria tritici; [14]): 100%; pest or weed control at 100 ppm (Sphaerotheca fuliginea; Example R6, gherkin, 100 ppm, read-out: Efficacy in %): 100%; pest or weed control at 500 ppm (Sphaerotheca fuliginea; Example R6, gherkin, 500 ppm, read-out: Efficacy in %): 100%; pest or weed control at 100 ppm (Uromyces appendiculatus; [15]): 100%; pest or weed control at 500 ppm (Uromyces appendiculatus; [16]): 100% |
| N#Cc1cncn1CC(O)(Cc1cccc(F)c1F)C1(F)CC1 (centres unmarked) [Example I-95] | 2.37 |  | 90 to 100 | 80 to 89 | 90 to 100 | 90 to 100 | 90 to 100 | 90 to 100 | 90 to 100 | 90 to 100 | 90 to 100 | 90 to 100 | 80 to 89 | 90 to 100 | 70 to 79 | 80 to 89 |  |  |
| OC(Cc1ccccc1)(Cn1cncc1Cl)C1(Cl)CC1 (centres unmarked) [Example I-39] | 2.04 | 90 to 100 | 90 to 100 | 90 to 100 | 90 to 100 | 90 to 100 | 90 to 100 | 90 to 100 | 90 to 100 | 90 to 100 | 90 to 100 | 90 to 100 | 70 to 79 | 70 to 79 | 70 to 79 |  |  |  |
| OC(Cc1cc(F)ncc1Cl)(Cn1cncc1Cl)C1(Cl)CC1 (centres unmarked) [Example I-18] | 2.01 | 90 to 100 | 90 to 100 | 90 to 100 | 90 to 100 | 90 to 100 | 90 to 100 | 90 to 100 | 90 to 100 | 90 to 100 | 80 to 89 | 90 to 100 | 90 to 100 | 90 to 100 | 90 to 100 | 90 to 100 | 70 to 79 |  |
| N#Cc1cncn1CC(O)(Cc1ccc(F)cc1)C1(Cl)CC1 (centres unmarked) [Example I-157] | 2.75 | 90 to 100 | 90 to 100 | 90 to 100 | 90 to 100 | 90 to 100 | 90 to 100 | 80 to 89 | 90 to 100 | 90 to 100 | 90 to 100 | 90 to 100 | 80 to 89 | 80 to 89 | 90 to 100 | 90 to 100 |  |  |
| OC(Cc1ccccc1Cl)(Cn1cncc1F)C1(Cl)CC1 (centres unmarked) [Example I-16] | 1.94 | 90 to 100 | 80 to 89 | 90 to 100 | 90 to 100 | 90 to 100 | 90 to 100 | 90 to 100 | 90 to 100 | 90 to 100 | 90 to 100 | 80 to 89 | 90 to 100 | 90 to 100 | 90 to 100 | 90 to 100 | 90 to 100 |  |
